Like-named read-outs stand apart in the source and are kept apart here.

20 compounds from publication PMC3541548 (Bioorganic & medicinal chemistry letters, 2012) can be followed below.

The target of one series is T1, Human sEH (Homo sapiens, UniProt P34913).
T1 sequence (P34913 1-555): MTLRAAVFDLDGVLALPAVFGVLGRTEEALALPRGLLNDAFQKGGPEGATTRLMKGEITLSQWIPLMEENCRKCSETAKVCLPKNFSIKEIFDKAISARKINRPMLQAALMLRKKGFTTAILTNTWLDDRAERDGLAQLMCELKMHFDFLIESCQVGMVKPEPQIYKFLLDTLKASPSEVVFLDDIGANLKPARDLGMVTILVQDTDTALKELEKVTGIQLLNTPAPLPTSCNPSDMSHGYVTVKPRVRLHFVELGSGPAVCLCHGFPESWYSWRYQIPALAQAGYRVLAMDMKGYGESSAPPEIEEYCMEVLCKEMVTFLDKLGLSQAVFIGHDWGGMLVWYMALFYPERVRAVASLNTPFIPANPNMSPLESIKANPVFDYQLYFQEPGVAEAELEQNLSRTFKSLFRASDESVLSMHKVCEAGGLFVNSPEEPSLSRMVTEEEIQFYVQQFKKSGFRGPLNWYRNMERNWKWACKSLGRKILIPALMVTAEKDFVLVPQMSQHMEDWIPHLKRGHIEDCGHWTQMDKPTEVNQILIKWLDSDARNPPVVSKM
In kind it is biochemical. To be noted: for fold lower potency against sEH: compared to 2-naphthalene analog 7-38.

Another series is described as follows: in vitro. To be noted: human, microsomes.
Setting [1] is: compared to phenyl compound 7-12.

In the case of `Cc1ccc(S(=O)(=O)N2CCC(C(=O)Nc3ccc(OC(F)(F)F)cc3)CC2)c(C)c1` [Compound 7-12], on Human sEH (compared to cycloalkyl lead compound 2), the “fold drop in potency against the human sEH” value is 15 fold.
Take `Cc1ccc(S(=O)(=O)N2CCC(C(=O)Nc3ccc(Cl)c(C(F)(F)F)c3)CC2)c(C)c1` [Compound 7-41]: at Human sEH, the “fold lower potency against sEH” value is 50 fold.
`Cc1ccc(S(=O)(=O)N2CCC(C(=O)Nc3ccc(N4CCOCC4)cc3)CC2)c(C)c1` [Compound 7-14]: the “fold decrease in potency” value on Human sEH (setting [1]) was 10 fold.
One may read the CLint scaled as a measure of how fast metabolising enzymes remove a compound, apart from limits set by blood flow. A low value points to greater metabolic stability. For `Cc1ccc(S(=O)(=O)N2CCC(C(=O)Nc3cccc4cccnc34)CC2)c(C)c1` [Compound 7-20], the CLint scaled at 1.5 h in “in vitro” turned out to be 7.2 L/h/kg.
Take `Cc1ccc(S(=O)(=O)N2CCC(C(=O)Nc3ccc(Cl)c(Cl)c3)CC2)c(C)c1` [Compound 7-19]: the “fold decrease in potency” value at Human sEH (setting [1]) amounted to 2 fold.
In “in vitro”, `Cc1ccc(S(=O)(=O)N2CCC(C(=O)NC34CC5CC(CC(C5)C3)C4)CC2)c(C)c1` [Compound 7-6] returned a CLint scaled at 1.5 h of 5.4 L/h/kg.
The same measure, in the same setting: to `Cc1ccc(S(=O)(=O)N2CCC(C(=O)Nc3ccc4cc(C(=O)O)ccc4c3)CC2)c(C)c1` [Compound 7-45] belongs 2.1 L/h/kg; to `Cc1ccc(S(=O)(=O)N2CCC(C(=O)Nc3ccccc3O)CC2)c(C)c1` [Compound 7-9], 31.2 L/h/kg.
As to `Cc1ccc(S(=O)(=O)N2CCC(C(=O)Nc3ccc([N+](=O)[O-])cc3)CC2)c(C)c1` [Compound 7-35], the “fold increase in potency (lower IC50)” value on Human sEH (setting [1]) amounted to 2 fold.
For `Cc1ccc(S(=O)(=O)N2CCC(C(=O)Nc3ccc4ccccc4c3)CC2)c(C)c1` [Compound 7-42], the CLint scaled at 1.5 h in the series “in vitro” amounted to 8.4 L/h/kg. Besides, the “fold lower potency against sEH” value at Human sEH is listed as 180 fold.
In the case of `Cc1ccc(S(=O)(=O)N2CCC(C(=O)Nc3ccc(F)cc3)CC2)c(C)c1` [Compound 7-39], the “fold lower potency against sEH” value on Human sEH was 5 fold.
The same measure, in the same setting: to `Cc1ccc(S(=O)(=O)N2CCC(C(=O)Nc3ccc(Br)cc3)CC2)c(C)c1` [Compound 7-40] belongs 30 fold.
Consider `Cc1ccc(S(=O)(=O)N2CCC(C(=O)Nc3ccc(S(=O)(=O)C(F)(F)F)cc3)CC2)c(C)c1` [Compound 7-38], for which, in “in vitro”, the CLint scaled at 1.5 h amounted to 2.1 L/h/kg.
Same read-out and setting: as for `COC(=O)c1ccc(NC(=O)C2CCN(S(=O)(=O)c3ccc(C)cc3C)CC2)cc1` [Compound 7-11], the figure is 20.4 L/h/kg.
`Cc1ccc(S(=O)(=O)N2CCC(C(=O)NC3CC3)CC2)c(C)c1` [Compound 7-24]: the “in vitro metabolic stability in human liver microsomes (in words)” value is on record as “intermediate metabolic profiles”. In “in vitro”, this compound displayed an intrinsic metabolic clearance (CLint scaled) at 1.5 h of 0.42 L/h/kg.
As to `Cc1ccc(S(=O)(=O)N2CCC(C(=O)Nc3ccc(C(C)C)cc3)CC2)c(C)c1` [Compound 7-37], the CLint scaled at 1.5 h in “in vitro” was determined as 3 L/h/kg. Also, the “fold increase in potency (lower IC50)” value on Human sEH is 3 fold.
For the compound `Cc1ccc(S(=O)(=O)N2CCC(C(=O)Nc3cccc4cnccc34)CC2)c(C)c1` [Compound 7-44], the CLint scaled at 1.5 h in the series “in vitro” came to 0.336 L/h/kg. Besides, the “fold lower potency against sEH” value on Human sEH amounted to 15 fold.
`Cc1ccc(S(=O)(=O)N2CCC(C(=O)Nc3ccc4c(c3)OCO4)CC2)c(C)c1` [Compound 7-23]: the “in vitro metabolic stability in human liver microsomes (in words)” value is given as “intermediate metabolic profiles”. Moreover, in the series “in vitro”, the CLint scaled at 1.5 h came out at 1.68 L/h/kg. In addition, the “fold increase in potency (lower IC50)” value at Human sEH (setting [1]) was 4 fold.
As to `Cc1ccc(S(=O)(=O)N2CCC(C(=O)Nc3cccc(C(F)(F)F)c3)CC2)c(C)c1` [Compound 7-16], on Human sEH (setting [1]), the “fold decrease in potency” value stood at 30 fold.
On to `Cc1ccc(S(=O)(=O)N2CCC(C(=O)NC3CCCC3)CC2)c(C)c1` [Compound 7-3], for which the CLint scaled at 1.5 h in “in vitro” was found to be 5.4 L/h/kg.
